This is an account of results in US9862711B2, “Pyrazine derivatives as phosphatidylinositol 3-kinase inhibitors” (NOVARTIS AG, priority 2014, dated 2018).

PI 3-kinase delta, sequence (O00329 2-1044): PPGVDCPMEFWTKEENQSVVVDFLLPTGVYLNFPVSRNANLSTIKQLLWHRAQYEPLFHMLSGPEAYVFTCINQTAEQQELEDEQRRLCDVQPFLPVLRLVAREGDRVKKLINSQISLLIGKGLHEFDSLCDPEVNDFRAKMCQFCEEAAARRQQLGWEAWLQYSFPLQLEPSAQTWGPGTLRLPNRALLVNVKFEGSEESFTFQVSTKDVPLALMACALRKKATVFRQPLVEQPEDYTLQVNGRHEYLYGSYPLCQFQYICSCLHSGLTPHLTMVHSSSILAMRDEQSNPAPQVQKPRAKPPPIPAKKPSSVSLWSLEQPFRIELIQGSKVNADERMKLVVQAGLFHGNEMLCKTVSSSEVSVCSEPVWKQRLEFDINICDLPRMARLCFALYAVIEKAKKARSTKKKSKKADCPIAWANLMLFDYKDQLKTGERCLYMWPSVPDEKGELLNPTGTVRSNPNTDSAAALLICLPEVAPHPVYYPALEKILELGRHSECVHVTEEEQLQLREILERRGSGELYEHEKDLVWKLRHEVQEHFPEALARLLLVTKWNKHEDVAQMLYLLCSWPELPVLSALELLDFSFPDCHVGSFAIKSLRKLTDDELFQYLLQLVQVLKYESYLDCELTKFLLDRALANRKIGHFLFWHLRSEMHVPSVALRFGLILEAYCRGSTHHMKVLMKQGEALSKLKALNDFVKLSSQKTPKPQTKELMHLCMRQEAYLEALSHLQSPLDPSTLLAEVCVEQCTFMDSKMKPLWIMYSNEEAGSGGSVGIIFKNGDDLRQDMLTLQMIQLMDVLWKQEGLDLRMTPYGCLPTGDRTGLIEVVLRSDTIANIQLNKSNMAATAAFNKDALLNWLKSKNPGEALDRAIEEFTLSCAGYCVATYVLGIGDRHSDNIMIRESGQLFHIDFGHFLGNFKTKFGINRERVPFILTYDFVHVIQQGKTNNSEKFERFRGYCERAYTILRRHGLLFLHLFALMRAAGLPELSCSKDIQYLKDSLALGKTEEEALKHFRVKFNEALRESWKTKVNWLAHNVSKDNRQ

This experiment has as its target PI 3-kinase delta (Homo sapiens (Human), UniProt O00329). The experiment is described as follows: TR-FRET Adapta assay (Assay F). Type of experiment: biochemical. The following applies: read-out: Assay F PI3Kδ IC50. From the text: TR-FRET Adapta Assay for PI 3-Kinase Gamma (E), PI 3-Kinase Delta (F)
The TR-FRET Adapta™ Universal Kinase Assay Kit was purchased from Invitrogen Corporation (Carlsbad/CA, USA) (Cat. No. PV5099). The kit contains the following reagents: Adapta Eu-anti-ADP Antibody (Europium labeled anti-ADP antibody in HEPES buffered saline, Cat. No. PV5097), Alexa Fluor® 647-labeled ADP tracer (Alexa Fluor® 647-labeled ADP tracer in HEPES buffered saline, Cat. No. PV5098), TR-FRET dilution buffer pH 7.5 (Cat. No. PV3574). PIK3CD substrate phosphatidylinositol (PI) was obtained from Invitrogen (vesicules consisting of 2 mM phosphatidylinositol (PI) in 50 mM HEPES pH7.5; Cat. No. PV5371). PIK3CG substrate phosphatidylinositol-4,5-bisphosphate (PIP(4,5)2 was obtained from Invitrogen (PIP2:PS large unilamellar vesicules consisting of 1 mM PIP2: 19 mM PS in 50 mM HEPES pH7.5, 3 mM MgCl2, 1 mM EGTA; Cat. No. PV5100).
Time-Resolved Fluorescence Resonance Energy Transfer (TR-FRET) is a technology based on energy transfer between two adjacent dyes, from an excited electron in one dye (the donor) to an electron of an adjacent dye (the acceptor) through resonance, then released as a photon. This energy transfer is detected by an increase in the fluorescence emission of the acceptor, and a decrease in the fluorescence emission of the donor. TR-FRET assays for protein kinases use a long-lifetime lanthanide Terbium or Europium chelates as the donor species which overcome interference from compound autofluorescence or light scatter from precipitated compounds, by introducing a delay after excitation by a flashlamp excitation source. Results are often expressed as a ratio of the intensities of the acceptor and donor fluorophores. The ratiometric nature of such a value corrects for differences in assay volumes between wells, as well as corrects for quenching effects due to colored compounds. The Adapta™ assay can be divided into two phases: a kinase reaction phase and an ADP detection phase. In the kinase reaction phase, all kinase reaction components are added to the well and the reaction is allowed to incubate for a set period of time specific for each kinase. After the reaction, a detection solution of Eu-labeled anti-ADP antibody, Alexa Fluor® 647-labeled ADP tracer, and EDTA (to stop the kinase reaction) are added to the assay well. ADP formed by the kinase reaction will displace the Alexa Fluor® 647-labeled ADP tracer from the antibody, resulting in a decrease in TR-FRET signal. In the presence of an inhibitor, the amount of ADP formed by the kinase reaction is reduced, and the resulting intact antibodytracer interaction maintains a high TR-FRET signal. In the Adapta™ assay, the donor (Europium-anti-ADP antibody) is excited at 340 nm and will transfer its energy to the acceptor (Alexa Fluor® 647-labeled ADP tracer). The emission from the Alexa Fluor® 647 can be monitored with a filter centered at 665 nm because it is located between the emission peaks of the donor, which is measured at 615/620 nm. 50 nL of compound dilutions were dispensed onto white 384-well small volume polystyrene plate. Then 5 μL of either PI 3-kinase gamma or PI 3-kinase delta and lipid substrate (P1 or PIP2:PS) followed by 5 μL of ATP (final assay volume 10 μL) are incubated at RT. The standard reaction buffer for the Adapta™ TR-FRET assay contained 10 mM Tris-HCl pH 7.5, 3 mM MgCl2, 50 mM NaCl, 1 mM DTT, 0.05% CHAPS ((3-[(3-cholamidopropyl)dimethylammonio]-1-propanesulfonate). Reactions were stopped with 5 μL of a mixture of EDTA containing the Eu-labeled anti-ADP antibody and the Alexa Fluor® 647-labeled ADP tracer in TR-FRET dilution buffer. Plates are read 15 to 60 mins later in a Synergy2 reader using an integration time of 0.4 seconds and a delay of 0.05 seconds. Control for the 100% inhibition of the kinase reaction was performed by replacing the PI 3-kinase by the standard reaction buffer. […]
In general terms: Time-resolved FRET reads energy transfer from a long-lived donor to a nearby acceptor.
As usually defined, the IC50 is the concentration needed to halve the response being measured. As for `Cc1ncc(-c2cncc(-c3cc(S(=O)(=O)NCCCO)ccc3C)n2)s1` [Example 1, N-(3-Hydroxy-propyl)-4-methyl-3-[6-(2-methyl-thiazol-5-yl)-pyrazin-2-yl]-benzenesulfonamide], the IC50 was 200 nM.

Regarding `Cc1ccc(S(=O)(=O)NCC(C)(C)O)cc1-c1cncc(-c2cn(C)nc2C)n1` [Example 2, 3-[6-(1,3-Dimethyl-1H-pyrazol-4-yl)-pyrazin-2-yl]-N-(2-hydroxy-2-methyl-propyl)-4-methyl-benzenesulfonamide], the IC50 came to 60 nM.

Turning to `Cc1ccc(S(=O)(=O)NCCC(C)(C)O)cc1-c1cncc(-c2cn(C)nc2C)n1` [Example 3, 3-[6-(1,3-Dimethyl-1H-pyrazol-4-yl)-pyrazin-2-yl]-N-(3-hydroxy-3-methyl-butyl)-4-methyl-benzenesulfonamide], the IC50 was found to be 70 nM.

Turning to `Cc1ccc(S(=O)(=O)NCC2(C)COC2)cc1-c1cncc(-c2cn(C)nc2C)n1` [Example 4, Trans 3-[6-(1,3-Dimethyl-1H-pyrazol-4-yl)-pyrazin-2-yl]-4-methyl-N-(3-methyl-oxetan-3-ylmethyl)-benzenesulfonamide], the IC50 came to 70 nM.

Take `Cc1ncc(-c2cncc(-c3cc(S(=O)(=O)N[C@H]4CC[C@H](O)CC4)ccc3C)n2)s1` [Example 5, Trans N-(4-Hydroxycyclohexyl)-4-methyl-3-(6-(2-methylthiazol-5-yl)pyrazin-2-yl)benzenesulfonamide]: the IC50 was 90 nM.

With `Cc1ccc(S(=O)(=O)NCC(C)(C)CO)cc1-c1cncc(-c2cn(C)nc2C)n1` [Example 8, 3-[6-(1,3-Dimethyl-1H-pyrazol-4-yl)-pyrazin-2-yl]-N-(3-hydroxy-2,2-dimethyl-propyl)-4-methyl-benzenesulfonamide], the IC50 is 70 nM.

For `Cc1ccc(S(=O)(=O)NCCC(C)(C)O)cc1-c1cncc(-c2cnn(CCN3CCOCC3)c2)n1` [Example 9, N-(3-Hydroxy-3-methyl-butyl)-4-methyl-3-{6-[1-(2-morpholin-4-yl-ethyl)-1H-pyrazol-4-yl]-pyrazin-2-yl}-benzenesulfonamide], the IC50 turned out to be 10 nM.

In the case of `Cc1ccc(S(=O)(=O)NCCC(C)(C)O)cc1-c1cncc(-c2cn(CCN3CCOCC3)nc2C)n1` [Example 10, N-(3-Hydroxy-3-methyl-butyl)-4-methyl-3-{6-[3-methyl-1-(2-morpholin-4-yl-ethyl)-1H-pyrazol-4-yl]-pyrazin-2-yl}-benzenesulfonamide], the half-maximal inhibitory concentration (IC50) was 20 nM.

As to `Cc1ccc(S(=O)(=O)N[C@H]2CC[C@H](O)CC2)cc1-c1cncc(-c2cccnc2)n1` [Example 11, Trans N-(4-Hydroxy-cyclohexyl)-4-methyl-3-(6-pyridin-3-yl-pyrazin-2-yl)-benzenesulfonamide], the IC50 was determined as 120 nM.
